Converted amounts (≈) assume the structure as drawn. Read-outs that look alike come from different tables or passages of the source.
Legend:
[1] = type: physicochemical; details: for pH of solution: solution of the water solubility test, 20 mg/mL in water
Protocol: (§1) HPLC analysis was performed for analyzing purity and contents such as a stability test, etc., using an Agilent 1100/1200 series HPLC Systems (Agilent, USA) analyzer, and the conditions used for HPLC were as follows. • Purity and Content Analysis Conditions: Furopyrimidine Compound of Formula 1 • Column: Hydrosphere C18 (YMC), 5 μm (150 mm×4.6 mm) • Column temperature: 30° C. • Detector: UV spectrophotometer • Detection wavelength: 254 nm • Flow rate: 1.0 mL/min • Time of analysis: 35 min • Eluent: NaClO4—NaH2PO4— phosphate buffer solution (pH 2.5±0.1)/CH3CN=65/35(v/v %) 5. Ion Chromatography (IC)
To measure water solubility, each sample of the acid addition salts of the compound of Formula 1 prepared in Examples 1 to 6 was prepared in deionized water under the following conditions, and then each solution was analyzed by HPLC according to content measurement conditions of the compound of Formula 1. The dissolved amounts (LOD: more than 0.001 mg/mL) based on the compound of Formula 1 were measured, and then the values were converted.
In detail, each 100 mg of various forms was added to 5 mL of water, and mixed using a Voltamixer at 20° C. to 25° C., and a filtrate filtered using GH Polypro membrane Acrodisc, PALL (pore size of 0.2 μm) was diluted with a dilution solvent for HPLC.

[2] = Dynamic vapor sorption (DVS) hygroscopicity; type: physicochemical
Protocol: DVS analysis was performed in a DVS advantage (Surface measurement system, United Kingdom) analyzer at 25° C. with a relative humidity of 0% to 90%. 10 mg of a sample was placed into a wire-mesh vapor sorption balance pan, and then attached to a DVS-advantage dynamic vapor sorption balance via surface measurement systems. Until a stable weight was achieved (99.5% completion of steps), the sample was applied to a ramping profile with a relative humidity (RH) of 10% to 90% with a 10% increase of the sample while maintaining the sample in each step. Upon completion of the sorption cycle, the sample was dried using the same process while maintaining a relative humidity of […]. The changes in the sample weight during the adsorption/desorption cycle (repeated 3 times) were recorded, and the hygroscopicity of the sample was measured.

[3] = Stability of the crystalline form under storage conditions; type: physicochemical; details: for stability under long-term storage conditions: temperature of 25° C. and relative humidity of 60%; for stability under accelerated conditions: temperature of 40° C. and relative humidity of 75%
Protocol: as §1

[4] = amorphous compound of Formula 1 as prepared in the reference documents; cited from earlier work
[5] = 25° C., region with a relative humidity of 10% to 90%

SMILES | Solubility [1] | stability under long-term storage conditions [3] | stability under accelerated conditions [3] | water absorption in DVS [2, 5] | other results
C=CC(=O)Nc1cccc(Oc2nc(Nc3ccc(N4CCN(C)CC4)cc3)nc3ccoc23)c1 [Example 1, N-(3-(2-(4-(4-methylpiperazin-1-yl)phenylamino)furo[3,2-d]pyrimidin-4-yloxy)phenyl)acrylamide] | 0.9~1.4 mg/mL | sufficiently stable | sufficiently stable |  | solubility compared in words [1]: higher solubility than the crystalline form of the monohydrochloride; pH of solution ([1]; listed as 2HCl•3H2O): 2.3~2.4; water absorption in DVS ([2]; region with a relative humidity of 0% to 20%): showed water absorption; water absorption in DVS ([2]; region with a relative humidity of 30% or more): very low water absorption; stability under harsh conditions ([3]; printed: temperature of 40° C. and relative humidity of 75%): sufficiently stable
C=CC(=O)Nc1cccc(Oc2nc(Nc3ccc(N4CCN(C)CC4)cc3)nc3ccoc23)c1 [Example 2, N-(3-(2-(4-(4-methylpiperazin-1-yl)phenylamino)furo[3,2-d]pyrimidin-4-yloxy)phenyl)acrylamide] | 0.3~0.7 mg/mL | sufficiently stable | sufficiently stable | about 0.8% | pH of solution ([1]; listed as 1HCl•2H2O): 5.8~5.9
C=CC(=O)Nc1cccc(Oc2nc(Nc3ccc(N4CCN(C)CC4)cc3)nc3ccoc23)c1 [Example 3, N-(3-(2-(4-(4-methylpiperazin-1-yl)phenylamino)furo[3,2-d]pyrimidin-4-yloxy)phenyl)acrylamide] | 1.27 mg/mL (≈ 2700 µM) | sufficiently stable | sufficiently stable | about 1% | pH of solution ([1]; listed as 1HCl•anhydrous): 5.9~6.0
C=CC(=O)Nc1cccc(Oc2nc(Nc3ccc(N4CCN(C)CC4)cc3)nc3ccoc23)c1 [Example 4, N-(3-(2-(4-(4-methylpiperazin-1-yl)phenylamino)furo[3,2-d]pyrimidin-4-yloxy)phenyl)acrylamide] | 1.13 mg/mL (≈ 2400 µM) | sufficiently stable | sufficiently stable | about 2% | pH of solution ([1]; listed as 1MsOH•anhydrous): 6.3
C=CC(=O)Nc1cccc(Oc2nc(Nc3ccc(N4CCN(C)CC4)cc3)nc3ccoc23)c1 [Example 5, N-(3-(2-(4-(4-methylpiperazin-1-yl)phenylamino)furo[3,2-d]pyrimidin-4-yloxy)phenyl)acrylamide] | 0.93 mg/mL (≈ 1980 µM) | sufficiently stable | sufficiently stable | about 1% | pH of solution ([1]; listed as 1MsOH•1H2O): 6.1
C=CC(=O)Nc1cccc(Oc2nc(Nc3ccc(N4CCN(C)CC4)cc3)nc3ccoc23)c1 [Example 6, N-(3-(2-(4-(4-methylpiperazin-1-yl)phenylamino)furo[3,2-d]pyrimidin-4-yloxy)phenyl)acrylamide] | 9.59 mg/mL (≈ 20400 µM) | sufficiently stable | sufficiently stable | about 1% | solubility compared in words [1]: remarkably high solubility; pH of solution ([1]; listed as 1EsOH anhydrous): 6.3
C=CC(=O)Nc1cccc(Oc2nc(Nc3ccc(N4CCN(C)CC4)cc3)nc3ccoc23)c1 [Formula 1 (Free base), N-(3-(2-(4-(4-methylpiperazin-1-yl)phenylamino)furo[3,2-d]pyrimidin-4-yloxy)phenyl)acrylamide] | 0.001 mg/mL |  |  |  | pH of solution [1]: 7.2~7.3; solubility in water [4]: less than 0.001 mg/mL

Source: patent US12227510B2, “Crystal form of acid addition salt of furopyrimidine compound” (HANMI PHARM. CO., LTD., priority 2019, dated 2025)
